The nature of this data set: logP determination by HPLC on a reversed-phase column (C 18), EEC Directive 79/831 Annex V.A8. The class given is physicochemical. On the procedure: The stated logP values were determined in accordance with EEC Directive 79/831 Annex V.A8 by HPLC (high performance liquid chromatography) on a reversed-phase column (C 18). Temperature: 43° C.
Where [1] appears, read: method marker [a] (footnote not shown), isomer A / isomer B / isomer mixture as noted in the cell.
[2] abbreviates: method marker [b], isomer A / isomer B / isomer mixture as noted in the cell.

Molecules are shown by their SMILES.

`C=C(CON=C(C)c1cccc(C)n1)CON=C(c1ccccc1)c1ncccc1C` [compound 351]: the logP (value marked [b]) is 3.89^[b]. `CCC(=NOCCCCON=C(CC)c1cccc(C)n1)c1cccc(C)n1` (mixture of isomers) [compound 223]: the logP under setting [1] was 4.86^[a].

In the case of `CC(=NOCC1(CON=C(C)c2nc(C)ccc2C)CCCC1)c1nc(C)ccc1C` (single isomer, unassigned) [Compound 763], the logP is, setting by setting: (value marked [b]) 4.76^[b]; (value marked [c]) 6.32^[c]. `CC(=NOCCCCON=C(C)c1cccc(C)n1)c1ccc2c(c1)OCO2` [compound 378]: the logP (value marked [b]) was 4.35^[b]. Take `CCC(=NOCC1(CON=C(CC)c2cccc(C)n2)CC(CC(C)C)=NO1)c1cccc(C)n1` (stereo not drawn) [compound 609]: the logP (method marked [b] in Table 1) was 5.21^[b]. For the molecule `CC(=NOCC(O)(CON=C(C)c1cccc(C)n1)CON=C(C)c1cccc(C)n1)c1cccc(C)n1` (stereo not drawn) [compound 221], the logP under setting [1] was 2.65^[a). In the case of `C=C(CON=C(C)c1cccc(C)n1)CON=C(N)c1ncc(C(F)(F)F)cc1Cl` [compound 245], the logP under setting [2] was 3.50^[b]. For the molecule `C=C(CON=C(C)c1ccccc1)CON=C(C)c1cccc(C)n1` [compound 408], under “value marked [b]”, the logP was 4.51^[b]. In the case of `C=C(CON=C(C)c1cccc(C)n1)CON=C(C)c1sc(C)nc1C` (single isomer, unassigned) [compound 544], the logP (method marked [b] in Table 1) is 3.00^b] (Isomer A). `COC(CON=C(C)c1ccc(C)c(C)n1)CON=C(C)c1ccc(C)c(C)n1` (stereo not drawn) [Compound 321]: the logP reads like this: (value marked [b]) 1.95^[b]; (value marked [c]) 5.06^[c]. In the case of `CC(=NOC/C=C\CON=C(C)c1cccc(C)n1)c1cccc(C)n1` [compound 778], the logP (value marked [b]) is 3.31^[b]. On the same count and under the same terms, with `CC(=NOCCCCON=C(C)c1cccc(C)n1)c1cnccn1` [compound 512] the figure was 3.02^[b]. Same read-out and setting: the value for `CCCc1cccc(C(C)=NOCC(C)(C)CON=C(C)c2cccc(C)n2)n1` [compound 489] was 6.36^[b]; that for `CCC(=NOCCCCON=C(C)c1cccc(C)n1)c1ncccc1C` (single isomer, unassigned) [compound 328] was 3.65^[b] (isomer B). Consider `CC(=NOCC(C)CON=C(C)c1cccc([Si](C)(C)C)n1)c1ccccn1` (stereo not drawn) [Compound 826], for which the logP is 6.72^[b] (value marked [b]) and 7.29^[c] (value marked [c]). With `CC(=NOCC(C)CON=C(C)c1cccc(Cc2ccccc2)n1)c1cccc(Cc2ccccc2)n1` (stereo not drawn) [Compound 173], the logP under setting [1] was 7.36^[a]. On to `CC(=NOCCCCCCON=C(C)c1cccc(C)n1)c1ccccn1` [compound 388], for which the logP (value marked [b]) was 4.41^[b].

In the case of `C=C(CON=C(C)c1ccc(Cl)nc1)CON=C(C)c1cccc(C)n1` [compound 201], the logP under setting [2] is 3.94^[b].

Take `CC(=NOCC(CON=C(C)c1nc(C)ccc1C)C(C)C)c1nc(C)ccc1C` (single isomer, unassigned) [compound 752]: the logP reads like this: (method marked [b] in Table 1) 2.89^[b]; (method marked [c] in Table 1) 4.85^[c]. Regarding `CC(=NOCC(C)CON=C(C)c1cccc(C)n1)c1cccc(C(F)(F)F)c1` (stereo not drawn) [compound 433], the logP (value marked [b]) was 5.71^[b]. Regarding `C=C(CON=C(C)c1ccc(C)nc1)CON=C(C)c1ccc(C)nc1` [compound 22], under setting [2], the logP was 1.37^[b]. Consider `C=C(CON=C(C)c1cccc(COC)n1)CON=C(C)c1cccc(COC)n1` [compound 291], for which, for the setting “value marked [b]”, the logP was 4.44^[b]. The same measure, in the same setting: the value for `CC(=NOCC(C)(C)CON=C(CC(C)C)c1ncccc1C)c1cccc(C)n1` [compound 366] was 5.97^[b]. For `CC(=NOCC(C)CON=C(C)c1cccc(C(C)C)n1)c1cccc(C(C)C)n1` (stereo not drawn) [Compound 229], the logP under setting [1] was 7.36^[a]. Turning to `CC(=NOC[C@@H]1O[C@H]1CON=C(C)c1cccc(C)n1)c1cccc(C)n1` [compound 285], the logP (value marked [b]) was 2.17^[b]. As for `CC(=NOCC(C)CON=C(C)c1nc2ccccc2[nH]1)c1nc2ccccc2[nH]1` (mixture of isomers) [compound 584], the logP (method marked [a] in Table 1) is 2.05^[a].

As to `CC(=NOCC1(CON=C(C)c2cc(C)cc(C)n2)CC1)c1cc(C)cc(C)n1` [Compound 556], the logP (method marked [b] in Table 1) is 2.11^[b] and the logP (method marked [c] in Table 1) was 5.97^[c].

`C=C(CON=C(C)c1cccc(Br)n1)CON=C(C)c1cccc(Br)n1` [compound 150]: the logP under setting [2] was 5.96^[b]. As to `CC(=NOC(C)C(C)C(C)ON=C(C)c1cc(C)cc(C)n1)c1cc(C)cc(C)n1` (mixture of isomers) [Compound 790], the logP was 3.60^[a] (value marked [a]) and 4.44^[b] (value marked [b]). Regarding `CC(=NOCC1(CON=C(C)c2ccc(C)c(C)n2)CC1)c1cccc(C)n1` [Compound 786], the logP is 3.99^[a] (value marked [a]), 3.99^[b] (value marked [b]) and 5.70^[c] (value marked [c]). For the molecule `CC(=NOCCCCON=C(C)c1ccccc1Cl)c1cccc(C)n1` [compound 379], the logP (value marked [b]) is 4.85^[b]. Regarding `Cc1cccc(C(=NOCCCON=C(c2ccccc2)c2cccc(C)n2)c2ccccc2)n1` (mixture of isomers) [compound 656], under “method marked [a] in Table 1”, the logP is 3.68^[a].

Consider `C=C(CON=C(C)c1cccc(C)n1)CON=C(N)c1ccc(C)c(C)n1` [compound 808], for which the logP (value marked [a]) is 2.38^[a]. Turning to `CC(=NOCCCON=C(C)c1cc(C)cc(C)n1)c1cc(C)cc(C)n1` [Compound 224], under setting [1], the logP was 1.65^[a]. The same measure, in the same setting: the value for `CC(=NOCC(C)CON=C(C)c1cc(C)cc(C)n1)c1cc(C)cc(C)n1` (stereo not drawn) [Compound 225] was 2.11^[a]. With `C=C(CON=C(C)c1cccc(C)n1)CON=C(CC(C)C)c1cccc(C)n1` [compound 356], the logP (value marked [b]) was 5.52^[b]. Take `Cc1cccc(C(=NOCC(C)CON=C(c2ccccc2)c2cccc(C)n2)c2ccccc2)n1` (mixture of isomers) [Compound 659]: under “method marked [a] in Table 1”, the logP is 4.09^[a]. For the molecule `COc1cccc(C(C)=NOCC(C)CON=C(C)c2cccc(C)n2)c1` (stereo not drawn) [Compound 495], for the setting “value marked [b]”, the logP is 4.80^[b]. Same read-out and setting: the value for `CC(=NOCC(C)(C)CON=C(Cc1ccccc1)c1ncccc1C)c1cccc(C)n1` [compound 363] was 5.71^[b]. On to `COc1cc(C)nc(C(C)=NOCC(C)(C)CON=C(C)c2cc(OC)cc(C)n2)c1` [Compound 840], for which the logP (value marked [a]) is 1.5^[a] and the logP (value marked [c]) is 5.79^[c]. In the case of `CC(=NOCCCCON=C(C)c1cccc(C(C)C)n1)c1cccc(C)n1` [compound 452], the logP (value marked [b]) was 5.97^[b].

With `CC(=NOCC1(CON=C(C)c2cccc(C)n2)CC(c2ccc(Cl)cc2)=NO1)c1cccc(C)n1` (stereo not drawn) [compound 601], the logP (method marked [b] in Table 1) was 4.67^[b].

As for `CC(=NOCC(C)(C)CON=C(C)c1ccc(C)c(C)n1)c1cc(C)cc(C)n1` [Compound 697], the logP was 3.15^[b] (method marked [b] in Table 1) and 6.70^[c] (method marked [c] in Table 1). Turning to `CC(=NOCC(C)(C)CON=C(C)c1cccc(C)n1)c1cccc(C)n1` (mixture of isomers) [Compound 250], under setting [2], the logP was 4.74^[b].

Consider `C=C(CON=C(C)c1cccc(CCC)n1)CON=C(C)c1cccc(CCC)n1` [Compound 62], for which the logP under setting [2] was 6.89^[b]. For `CCc1nc(C(C)=NOCC(C)CON=C(C)c2ccc(C)c(CC)n2)ccc1C` (stereo not drawn) [Compound 310], the logP (value marked [b]) is 6.48^[b]. As for `Cc1cc(C)cc(/C(N)=N/OCc2ccccc2CO/N=C(\N)c2cc(C)cc(C)c2)c1` [compound 710], the logP (method marked [b] in Table 1) was 3.68^[b].

These data come from patent publication US20100022559A1, “BISOXIMES AS FUNGICIDES” (BAYER CROPSCIENCE AG, priority 2006, published 2010).
